Reference: patent publication US9211244B2, “Method for anti-skin aging using caffeamide derivative” (CHINA MEDICAL UNIVERSITY, priority 2013, dated 2015)

Key:
[1] = system: human fibroblast Hs68 cells; assay: Scavenging test of ROS free radicals in UVB-irradiated cells; assay type: cell-based; details: UVB 80 mJ/cm^2, 24 hours
Procedure: After incubated in an incubator (37° C., 5% CO2) for 24 hours, the ROS level was examined.

MMP-1 = assay: MMP expression, western blot, UVB-irradiated Hs68 cells; assay type: cell-based, human; details: 5 μM; UVB 40 mJ/cm^2; 48 hours
Procedure: (§1) Human fibroblast Hs68 cells (5×10^5) (the number of Bioresource Collection and Research Center (BCRC): 60038) were counted and incubated in a culture dish with a diameter of 10 cm (the culture dish components were adjusted by L-glutamine (4 mM) to have 1.5 g/L NaHCO3, 4.5 g/L glucose, and 90% Dulbecco's Modified Eagle's Medium with 10% fetal bovine serum (FBS)). The medium was removed until human fibroblast Hs68 cells grow to a confluence of 80%, and the cells were then washed once with 5 ml PBS (phosphate buffered saline). Then, 3 ml phenol red-free medium which contain different concentrations (0 μM to 25 μM) of the compounds of formula (1) or formula (2) prepared in Example 1 were added into the culture dish. After incubating for 1 hour, the cells were irradiated by UV light (UVB with an intensity of 40 mJ/cm^2) for 15 seconds. Next, the phenol red-free medium which contains different concentrations (0 μM to 25 μM) of the compounds of formula (1) or formula (2) prepared in Example 1 were added into the culture dish sequentially. After incubation in an incubator (37° C., 5% CO2) for 48 hours, the cells were collected.
(§2) The collected cells were treated with a sonication buffer (containing Na3VO4 (100 μM), phenylmethanesulfonyl fluoride (PMSFL, 100 mg/ml), leupeptin (20 mg/ml), Tris-HCl (pH 7.4, 50 μM), NaCl (37.5 μM), DL-dithiothretiol (250 μM), sodium deoxycholate (3 μM), EDTA (1 μM), SDS (0.1%), and Igepal™ CA-630 (Sigma-Aldrich, 1%)) and sonicated to rupture the cell membranes. Then, the organelles and fragments of the cells were precipitated by centrifugation, and the supernatant, which contains proteins in the cytosol was collected. Next, the obtained proteins were separated by SDS-PAGE, and transferred to a membrane by western blotting. Antibodies were used to recognize the targeted proteins, such as MMP-1, MMP-3, MMP-9, and actin. The images were recorded by a Luminescent imagination technology (LAS-4000, FUJIFILM), and the variation of the proteins expression levels were determined by a quantitative analysis software (multi Gauge 2.2, Steware Technology Inc.).

MMP-3 = assay: as above; assay type: cell-based, human; details: 25 μM; UVB 40 mJ/cm^2; 48 hours
Procedure: as §1, §2

[2] = system: human fibroblast Hs68 cells; assay: Cellular toxicity evaluation, MTT assay; assay type: cell-based; details: 24 hours
Procedure: MTT (3-(4,5-dimethylthiazol-2-yl)-2,5-diphenyl tetrazolium bromide) assay was used to determine the cellular toxicity of the caffeamide derivatives described herein. First, different concentrations (0 μM to 100 μM) of the compounds of formula (1) or formula (2) prepared in Example 1 of the present invention were added, respectively, into a 96-well microplate which containing human fibroblast Hs68 cells (1×10^4 cells per well). After the cells were incubated in an incubator at 37° C. and 5% CO2 for 24 hours, 15 μl of MTT solution (0.5 mg/ml; dissolved in PBS) was added into the microplate and the human fibroblast Hs68 cells were incubated for 3 hours. Next, 75 μl SDS (sodium dodecyl sulfate) solution (10% SDS was dissolved in 0.01N HCl) was added into the microplate. After the cells were maintained for 24 hours, the absorbances of each well were measured at a wavelength of 570 nm by an enzyme immunoassay analyzer. Finally, the cell survival rate was calculated by the following formula to observe the cellular toxicity of compounds. The results are shown in Table 5, FIG. 10a and FIG. 10b. Cell survival rate(%)=absorbance of the experimental group/absorbance of the control group.

Smad3 = assay: Promotion test of the expression of collagen, western blot; assay type: cell-based, human; details: 25 μM; UVB 40 mJ/cm^2
Procedure: (§3) It has been known that Smad3 protein can promote the expression level of procollagen-1, and Smad7 protein can inhibit the expression level of Smad3 protein. After cells were irradiated with UV rays, the expression levels of procollagen-1 and Smad3 protein will reduce and the expression level of Smad7 protein will increase. Therefore, in this experiment, the expression levels of intracellular procollagen-1 protein, Smad3 protein and Smad7 protein were analyzed by western blotting.
(§4) Specifically, when the concentration of the compound of formula (2) was 25 μM, the protein expression level of Smad7 was 1.1 times as compared to that of the untreated cells.

procollagen-1 = assay: as above; assay type: cell-based, human; details: 25 μM; UVB 40 mJ/cm^2
Procedure: as §3, §4

Smad7 = assay: as above; assay type: cell-based, human; details: 25 μM; UVB 40 mJ/cm^2
Procedure: as §3, §4

Compound: O=C(C=Cc1ccc(O)c(O)c1)NCCc1ccc(Br)cc1 [Compound of formula (2)]
- Concentration of ROS (times compared to the untreated cells) ([1]; 5 μM): 1.0 ± 0.09 times
- Concentration of ROS (times compared to the untreated cells) ([1]; 10 μM): 0.9 ± 0.02 times
- Concentration of ROS (times compared to the untreated cells) ([1]; 10 μM, listed as compound of formula (2)): 0.9 times
- Concentration of ROS (times compared to the untreated cells) ([1]; 25 μM): 0.8 ± 0.04 times
- Concentration of ROS (times compared to the untreated cells) ([1]; 25 μM, listed as compound of formula (2)): 0.8 times
- expression level of MMP-1 as compared to that of the untreated cells (MMP-1): 1.1 times
- expression level of MMP-3 as compared to that of the untreated cells (MMP-3): 1.0 times
- Cell survival rate (%) ([2]; 5 μM): 92.0 ± 1.0%
- Cell survival rate (%) ([2]; 10 μM): 90.4 ± 2.3%
- Cell survival rate (%) ([2]; 25 μM): 89.7 ± 2.8%
- Cell survival rate (%) ([2]; 50 μM): 86.1 ± 1.4%
- protein expression level of Smad3 inhibited by UVB, reversed to (Smad3): 0.5 times
- protein expression level of procollagen-1 decreased by UVB, reversed to (procollagen-1): 0.4 times
- protein expression level of Smad7 as compared to that of the untreated cells (Smad7): 1.1 times
